# Measured values: PubChem BioAssay (NCI)
#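 Where inhibition never reached the appropriate level, the endpoint shown equals the highest concentration tested. Otherwise, values were interpolated linearly from a five-concentration, 48-hour dose response in 96-well plates. TGI: concentration producing complete growth inhibition.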
# Experiments:
# Assay in all cases: NCI tumour cell line growth inhibition, 48 h
# KM12 colon = test system: KM12 colon
# LOX IMVI melanoma = test system: LOX IMVI melanoma
# SR leukemia = test system: SR leukemia
# SK-OV-3 ovarian = test system: SK-OV-3 ovarian
# SF-539 CNS = test system: SF-539 CNS
# SK-MEL-28 melanoma = test system: SK-MEL-28 melanoma
# UO-31 renal = test system: UO-31 renal
# SK-MEL-5 melanoma = test system: SK-MEL-5 melanoma
# SW-620 colon = test system: SW-620 colon
# RXF 393 renal = test system: RXF 393 renal
# HCT-15 colon = test system: HCT-15 colon
# 786-0 renal = test system: 786-0 renal
# M19-MEL melanoma = test system: M19-MEL melanoma
# MALME-3M melanoma = test system: MALME-3M melanoma
# OVCAR-5 ovarian = test system: OVCAR-5 ovarian
# COLO 205 colon = test system: COLO 205 colon
# DMS 114 small cell lung = test system: DMS 114 small cell lung
# SF-268 CNS = test system: SF-268 CNS
# A549 NSCLC = test system: A549 NSCLC
# MOLT-4 leukemia = test system: MOLT-4 leukemia
# CCRF-CEM leukemia = test system: CCRF-CEM leukemia
# NCI-H522 lung = test system: NCI-H522 lung
# TK-10 renal = test system: TK-10 renal
# U251 CNS = test system: U251 CNS
# HOP-92 NSCLC = test system: HOP-92 NSCLC
# DLD-1 colon = test system: DLD-1 colon
# SN12C renal = test system: SN12C renal
# SF-295 CNS = test system: SF-295 CNS
# UACC-62 melanoma = test system: UACC-62 melanoma
# OVCAR-3 ovarian = test system: OVCAR-3 ovarian
# HOP-18 NSCLC = test system: HOP-18 NSCLC
# M14 melanoma = test system: M14 melanoma
# HOP-62 NSCLC = test system: HOP-62 NSCLC
# LXFL 529 NSCLC = test system: LXFL 529 NSCLC
# SNB-75 CNS = test system: SNB-75 CNS
# ACHN renal = test system: ACHN renal
# HCT-116 colon = test system: HCT-116 colon
# OVCAR-4 ovarian = test system: OVCAR-4 ovarian
# RPMI-8226 leukemia = test system: RPMI-8226 leukemia
# HCC-2998 colon = test system: HCC-2998 colon
# NCI-H460 lung = test system: NCI-H460 lung
# K-562 leukemia = test system: K-562 leukemia
# HL-60(TB) leukemia = test system: HL-60(TB) leukemia
# SK-MEL-2 melanoma = test system: SK-MEL-2 melanoma
# DMS 273 small cell lung = test system: DMS 273 small cell lung
# SNB-19 CNS = test system: SNB-19 CNS
# NCI-H23 lung = test system: NCI-H23 lung
# A498 renal = test system: A498 renal
# IGROV1 ovarian = test system: IGROV1 ovarian
# CAKI-1 renal = test system: CAKI-1 renal
# HT29 colon = test system: HT29 colon
# MCF7 breast = test system: MCF7 breast
# EKVX NSCLC = test system: EKVX NSCLC
# PC-3 prostate = test system: PC-3 prostate
# T-47D breast = test system: T-47D breast
# NCI-H226 lung = test system: NCI-H226 lung
# DU-145 prostate = test system: DU-145 prostate
# MDA-MB-435 = test system: MDA-MB-435
# HS 578T breast = test system: HS 578T breast
# BT-549 breast = test system: BT-549 breast
# UACC-257 melanoma = test system: UACC-257 melanoma
# OVCAR-8 ovarian = test system: OVCAR-8 ovarian
# NCI/ADR-RES ovarian = test system: NCI/ADR-RES ovarian
# MDA-MB-231 breast = test system: MDA-MB-231 breast
# MDA-N = test system: MDA-N
smiles,measurement,setting,value
O=C1CC(=O)N(CCc2ccccc2)S(=O)(=O)N1CCc1ccccc1,TGI,KM12 colon,39.5 µM
same,TGI,LOX IMVI melanoma,3.72 µM
same,TGI,SR leukemia,48.2 µM
same,TGI,SK-OV-3 ovarian,61 µM
same,TGI,SF-539 CNS,43.5 µM
same,TGI,SK-MEL-28 melanoma,> 100 µM
same,TGI,UO-31 renal,40.5 µM
same,TGI,SK-MEL-5 melanoma,44.2 µM
same,TGI,SW-620 colon,> 100 µM
same,TGI,RXF 393 renal,83.4 µM
same,TGI,HCT-15 colon,> 100 µM
same,TGI,786-0 renal,30.8 µM
same,TGI,M19-MEL melanoma,> 100 µM
same,TGI,MALME-3M melanoma,79.5 µM
same,TGI,OVCAR-5 ovarian,64.4 µM
same,TGI,COLO 205 colon,44.2 µM
same,TGI,DMS 114 small cell lung,48.6 µM
same,TGI,SF-268 CNS,80.8 µM
same,TGI,A549 NSCLC,64.8 µM
same,TGI,MOLT-4 leukemia,44.2 µM
same,TGI,CCRF-CEM leukemia,35 µM
same,TGI,NCI-H522 lung,37.5 µM
same,TGI,TK-10 renal,> 100 µM
same,TGI,U251 CNS,30.5 µM
same,TGI,HOP-92 NSCLC,32.3 µM
same,TGI,DLD-1 colon,> 100 µM
same,TGI,SN12C renal,> 100 µM
same,TGI,SF-295 CNS,35.4 µM
same,TGI,UACC-62 melanoma,77.7 µM
same,TGI,OVCAR-3 ovarian,36.8 µM
same,TGI,HOP-18 NSCLC,> 100 µM
same,TGI,M14 melanoma,> 100 µM
same,TGI,HOP-62 NSCLC,> 100 µM
same,TGI,LXFL 529 NSCLC,40.7 µM
same,TGI,SNB-75 CNS,84.7 µM
same,TGI,ACHN renal,> 100 µM
same,TGI,HCT-116 colon,74.5 µM
same,TGI,OVCAR-4 ovarian,44.6 µM
same,TGI,RPMI-8226 leukemia,52 µM
same,TGI,HCC-2998 colon,> 100 µM
same,TGI,NCI-H460 lung,> 100 µM
same,TGI,K-562 leukemia,58.1 µM
same,TGI,HL-60(TB) leukemia,38.3 µM
same,TGI,SK-MEL-2 melanoma,48.3 µM
same,TGI,DMS 273 small cell lung,43.8 µM
same,TGI,SNB-19 CNS,87.4 µM
same,TGI,NCI-H23 lung,69.1 µM
same,TGI,A498 renal,34.2 µM
same,TGI,IGROV1 ovarian,42 µM
same,TGI,CAKI-1 renal,51.4 µM
same,TGI,HT29 colon,47.5 µM
COc1cc2c(cc1O)[C@@H]1Cc3c(cc(OC)c(OC)c3Oc3cc4c(cc3OC)CCN(C)[C@@H]4Cc3ccc(O)cc3)[C@H](C2)N1C,TGI,MCF7 breast,> 100 µM
same,TGI,KM12 colon,> 100 µM
same,TGI,LOX IMVI melanoma,37.7 µM
same,TGI,SR leukemia,19.3 µM
same,TGI,SK-OV-3 ovarian,> 100 µM
same,TGI,SF-539 CNS,65.2 µM
same,TGI,SK-MEL-28 melanoma,34.9 µM
same,TGI,UO-31 renal,> 100 µM
same,TGI,EKVX NSCLC,> 100 µM
same,TGI,PC-3 prostate,> 100 µM
same,TGI,SK-MEL-5 melanoma,30.1 µM
same,TGI,SW-620 colon,> 100 µM
same,TGI,RXF 393 renal,37.4 µM
same,TGI,HCT-15 colon,> 100 µM
same,TGI,786-0 renal,> 100 µM
same,TGI,MALME-3M melanoma,32.2 µM
same,TGI,OVCAR-5 ovarian,> 100 µM
same,TGI,T-47D breast,> 100 µM
same,TGI,COLO 205 colon,38.2 µM
same,TGI,SF-268 CNS,> 100 µM
same,TGI,A549 NSCLC,> 100 µM
same,TGI,MOLT-4 leukemia,> 90.5 µM
same,TGI,CCRF-CEM leukemia,> 72.1 µM
same,TGI,NCI-H522 lung,67 µM
same,TGI,NCI-H226 lung,> 100 µM
same,TGI,TK-10 renal,> 100 µM
same,TGI,U251 CNS,> 100 µM
same,TGI,HOP-92 NSCLC,> 100 µM
same,TGI,SN12C renal,> 100 µM
same,TGI,SF-295 CNS,> 100 µM
same,TGI,UACC-62 melanoma,> 100 µM
same,TGI,OVCAR-3 ovarian,> 100 µM
same,TGI,DU-145 prostate,> 100 µM
same,TGI,MDA-MB-435,40.8 µM
same,TGI,M14 melanoma,33.9 µM
same,TGI,HOP-62 NSCLC,> 100 µM
same,TGI,HS 578T breast,> 100 µM
same,TGI,SNB-75 CNS,> 80 µM
same,TGI,ACHN renal,> 100 µM
same,TGI,BT-549 breast,96.9 µM
same,TGI,HCT-116 colon,> 100 µM
same,TGI,OVCAR-4 ovarian,> 100 µM
same,TGI,UACC-257 melanoma,44.6 µM
same,TGI,RPMI-8226 leukemia,> 79.6 µM
same,TGI,HCC-2998 colon,> 72 µM
same,TGI,NCI-H460 lung,> 100 µM
same,TGI,K-562 leukemia,45.8 µM
same,TGI,OVCAR-8 ovarian,> 100 µM
same,TGI,HL-60(TB) leukemia,36.6 µM
same,TGI,SK-MEL-2 melanoma,53.3 µM
same,TGI,SNB-19 CNS,> 100 µM
same,TGI,NCI/ADR-RES ovarian,> 100 µM
same,TGI,MDA-MB-231 breast,98.2 µM
same,TGI,NCI-H23 lung,> 100 µM
same,TGI,A498 renal,80.4 µM
same,TGI,IGROV1 ovarian,> 100 µM
same,TGI,CAKI-1 renal,> 100 µM
same,TGI,HT29 colon,> 100 µM
same,TGI,MDA-N,38.3 µM
